Data reported in the NIST ThermoML archive (doi:10.1021/je0500577).

Experiments:
[1] = for surface tension liquid-gas: Drop volume; for mass density: 101.33 kPa, Liquid
[2] = xn = mol fraction of the nth substance listed

C1CCOC1 [tetrahydrofuran]
[1]
Details | mass density [kg/m3] | surface tension liquid-gas [mN/m]
298.15 K | 882.1 | 27.12
313.15 K | – | 25.24

BrC1CCCCC1 [bromocyclohexane]
[1]
Details | mass density [kg/m3] | surface tension liquid-gas [mN/m]
298.15 K | 1328.41 | 33.63
313.15 K | – | 32.98

C1CCOCC1 [tetrahydropyran] + ClC1CCCCC1
[2], Drop volume, x2 = 0
Details | surface tension liquid-gas [mN/m]
298.15 K | 27.29
313.15 K | 25.46

CC1CCCO1 (stereo not drawn) [2-methyltetrahydrofuran] + ClC1CCCCC1
[2], Drop volume, x2 = 0
Details | surface tension liquid-gas [mN/m]
298.15 K | 24.56
313.15 K | 23.02

BrC1CCCCC1 [bromocyclohexane] + CC1CCCO1
surface tension liquid-gas [mN/m], [2], Drop volume
Details | 298.15 K | 313.15 K
x1 = 0.042 | 24.87 | 23.36
x1 = 0.0933 | 25.28 | 23.78
x1 = 0.1942 | 26.13 | 24.63
x1 = 0.2908 | 26.95 | 25.48
x1 = 0.3921 | 27.82 | 26.38
x1 = 0.5072 | 28.82 | 27.43
x1 = 0.5896 | 29.55 | 28.19
x1 = 0.6994 | 30.58 | 29.24
x1 = 0.8173 | 31.75 | 30.49
x1 = 0.9043 | 32.65 | 31.55
x1 = 0.9247 | 32.86 | 31.85
x1 = 1 | 33.63 | 32.98

ClC1CCCCC1 [chlorocyclohexane] + CC1CCCO1
surface tension liquid-gas [mN/m], [2], Drop volume
Details | 298.15 K | 313.15 K
x1 = 0.0434 | – | 23.23
x1 = 0.0471 | 24.85 | –
x1 = 0.0868 | – | 23.44
x1 = 0.0884 | 25.11 | –
x1 = 0.1719 | – | 23.93
x1 = 0.1722 | 25.63 | –
x1 = 0.2652 | 26.2 | –
x1 = 0.2653 | – | 24.47
x1 = 0.3536 | – | 25
x1 = 0.3605 | 26.81 | –
x1 = 0.4587 | 27.44 | –
x1 = 0.4591 | – | 25.65
x1 = 0.5615 | 28.15 | –
x1 = 0.5618 | – | 26.31
x1 = 0.6654 | 28.86 | –
x1 = 0.6677 | – | 27.03
x1 = 0.7734 | – | 27.78
x1 = 0.7761 | 29.62 | –
x1 = 0.8805 | – | 28.58
x1 = 0.8856 | 30.34 | –
x1 = 0.9404 | – | 29
x1 = 0.9418 | 30.7 | –
x1 = 1 | 31.05 | 29.44

ClC1CCCCC1 [chlorocyclohexane] + C1CCOCC1
surface tension liquid-gas [mN/m], [2], Drop volume
Details | 298.15 K | 313.15 K
x1 = 0.044 | – | 25.64
x1 = 0.0446 | 27.44 | –
x1 = 0.085 | 27.58 | –
x1 = 0.0854 | – | 25.82
x1 = 0.1668 | – | 26.17
x1 = 0.1673 | 27.88 | –
x1 = 0.2584 | 28.23 | –
x1 = 0.259 | – | 26.55
x1 = 0.3519 | 28.62 | –
x1 = 0.3527 | – | 26.94
x1 = 0.4499 | – | 27.33
x1 = 0.4501 | 29.01 | –
x1 = 0.5511 | 29.41 | –
x1 = 0.5923 | – | 27.91
x1 = 0.6578 | – | 28.17
x1 = 0.658 | 29.82 | –
x1 = 0.7676 | 30.24 | –
x1 = 0.7693 | – | 28.6
x1 = 0.8744 | 30.62 | –
x1 = 0.8809 | – | 29.02
x1 = 0.9385 | – | 29.22
x1 = 0.9393 | 30.84 | –
x1 = 1 | 31.05 | 29.44

CC1CCCO1 (stereo not drawn) [2-methyltetrahydrofuran]
[1]
Details | mass density [kg/m3] | surface tension liquid-gas [mN/m]
298.15 K | 849.4 | 24.56
313.15 K | – | 23.02

BrC1CCCCC1 [bromocyclohexane] + CC1CCC(C)O1
[2], x1 = 1
Details | surface tension liquid-gas [mN/m]
298.15 K | 33.63
313.15 K | 32.98

ClC1CCCCC1 [chlorocyclohexane] + CC1CCC(C)O1
[2], Drop volume, x1 = 1
Details | surface tension liquid-gas [mN/m]
298.15 K | 31.05
313.15 K | 29.44

CC1CCC(C)O1 (stereo not drawn) [2,5-dimethyltetrahydrofuran] + ClC1CCCCC1
surface tension liquid-gas [mN/m], [2], Drop volume
Details | 298.15 K | 313.15 K
x2 = 0 | 22.93 | 21.5
x2 = 0.054 | – | 21.87
x2 = 0.0582 | 23.29 | –
x2 = 0.0998 | – | 22.15
x2 = 0.1048 | 23.51 | –
x2 = 0.1988 | 24 | –
x2 = 0.202 | – | 22.76
x2 = 0.3031 | 24.46 | –
x2 = 0.3037 | – | 23.3
x2 = 0.4025 | 24.96 | –
x2 = 0.4049 | – | 23.78
x2 = 0.5047 | 25.45 | –
x2 = 0.509 | – | 24.29
x2 = 0.6055 | – | 24.87
x2 = 0.6071 | 25.99 | –
x2 = 0.7039 | – | 25.58
x2 = 0.7088 | 26.75 | –
x2 = 0.8075 | – | 26.61
x2 = 0.8097 | 27.83 | –
x2 = 0.9009 | 29.1 | –
x2 = 0.9065 | – | 27.94
x2 = 0.9479 | – | 28.54
x2 = 0.9482 | 29.98 | –
